Laboratory results from US20240398817A1, “CARDIO- AND RENOSAFE ANTIDIABETIC THERAPY” (priority 2018, published 2024).
Entries after “also recorded” stand apart in the source; their conditions may differ.

Tested on: patients with type 2 diabetes at high vascular risk
Test: Cardiovascular and Renal Outcomes Trial: linagliptin 5 mg once daily vs placebo on top of standard of care
Assay type: in vivo
Details: for Albuminuria progression: patients, %: of 2162 analysed; for Hospitalisation for heart failure vs placebo, in words: subgroup without insulin use at baseline
Procedure: The effect of linagliptin on cardiovascular risk in adult patients with type 2 diabetes mellitus and with increased CV risk evidenced by a history of established macrovascular or renal disease (e.g. as defined herein) was evaluated in a multi-center, multi-national, randomized, double-blind parallel group trial. The trial compared the risk of experiencing a major adverse cardiovascular event (MACE) between linagliptin and placebo when these were added to and used concomitantly with standard of care treatments for diabetes (HbA1c), cardiovascular risk factors and renal disease.
The primary endpoint in this trial was the time to first occurrence of three point (3P) MACE. A major adverse cardiac event was defined as a cardiovascular death or a nonfatal myocardial infarction (MI) or a nonfatal stroke. The statistical analysis plan tested for non-inferiority for the occurrence of (3P) MACE. […] The secondary endpoint was a renal composite, defined as renal death or sustained end stage renal disease or sustained decrease of 40% or more in eGFR.
Type 2 diabetes patient with insufficient glycemic control (naïve or pre-treated with any antidiabetic background medication, excluding treatment with GLP-1 receptor agonists, DPP-4inhibitors or SGLT-2 inhibitors if ≥consecutive 7 days, e.g. having HbA1c 6.5-10%), and high risk of cardiovascular events, e.g. defined by: • albuminuria (micro or macro) and previous macrovascular disease: e.g. defined according to Condition I as indicated below; • and/or • impaired renal function: e.g. as defined according to Condition II as indicated below;
Background and aims: People with type 2 diabetes (T2D) are at increased risk for hospitalization for heart failure (hHF), particularly in the setting of concomitant cardiovascular (CV) and/or kidney disease. […] Here we present analyses of HF outcomes with the DPP-4 inhibitor linagliptin (LINA) vs. placebo (PBO) from a Cardiovascular and Renal Outcomes Trial assessing cardiovascular safety and renal microvascular outcome in patients with type 2 diabetes at high vascular risk, a large CV outcomes trial that enrolled participants with T2D at high risk for hHF due to concomitant CV and/or chronic kidney disease. Materials and methods: People with T2D and concomitant CV and/or kidney disease were randomized to receive LINA 5 mg, or PBO once daily (1:1), on top of standard of care. All hHF, CV outcomes, and deaths were centrally adjudicated, with individual and composite HF-related outcomes analyses comparing LINA vs. placebo. Investigator-reported HF-related adverse events, whether or not confirmed by adjudication, were also analyzed. A Cox proportional hazards model adjusting for region and history of HF was used for analyses of first events. Recurrent hHF events were analyzed using a negative binomial model.
Methods: The present Cardiovascular and Renal Outcomes Trial randomized people with T2D and i) concomitant CV disease with UACR >30 mg/g or ii) prevalent CKD (i.e. GFR <45 ml/min/1.73m2 and/or UACR >200 mg/g) to receive the DPP-4 inhibitor linagliptin (5 mg) or placebo once daily in a double-blind fashion. The primary CV endpoint was 3P-MACE, with a key secondary kidney endpoint (adjudicated ESKD, renal death, or sustained ≥40% decrease in eGFR from baseline) and other renal outcomes (including albuminuria and eGFR slope) also assessed. Subgroups were assessed by baseline kidney function (eGFR ≥/<45 ml/min/1.73m2and eGFR ≥/<30, 45 or 60 ml/min/1.73m2).
Adults with type 2 diabetes, HbA1c 6.5-10.0% inclusive, and high CV risk were eligible for inclusion. […] Macrovascular disease eligibility criteria was based on documented and confirmed history of myocardial infarction, coronary artery disease, stroke, carotid artery disease, or peripheral artery disease. Participants with end-stage kidney disease (ESKD), defined as eGFR <15 or requiring maintenance dialysis, were excluded.

CC#CCn1c(N2CCC[C@@H](N)C2)nc2c1c(=O)n(Cc1nc(C)c3ccccc3n1)c(=O)n2C [Linagliptin, 1-[(4-methyl-quinazolin-2-yl)methyl]-3-methyl-7-(2-butyn-1-yl)-8-(3-(R)-amino-piperidin-1-yl)-xanthine]
Hospitalization for unstable angina: rate/1000 patient-years (in vivo): 5.5 per 1000 patient years
Hypersensitivity reactions, all AEs: % (in vivo): 3.3%
Hypersensitivity reactions, all AEs: N (in vivo): 114
Investigator reported HF events: HR vs placebo (in vivo): 0.87
Investigator reported HF events: events (in vivo): 243
Investigator reported hypoglycemia: % (in vivo): 29.7%
Investigator reported hypoglycemia: N (in vivo): 1036
New initiation of loop diuretics or hHF: HR vs placebo (in vivo): 0.95
New initiation of loop diuretics or hHF: participants (in vivo): 330/2530
New introduction of loop diuretics: HR vs placebo (in vivo): 0.94
New introduction of loop diuretics: participants (in vivo): 318/2530
Non-cardiovascular death: % (in vivo): (3.2) %
Non-cardiovascular death: hazard ratio vs placebo (in vivo): 1.02
Non-cardiovascular death: no. (in vivo): 112
Non-cardiovascular death: rate/1000 patient-years (in vivo): 14.3 per 1000 patient years
Non-fatal myocardial infarction: % (in vivo): (4.5) %
Non-fatal myocardial infarction: hazard ratio vs placebo (in vivo): 1.15
Non-fatal myocardial infarction: no. (in vivo): 156
Non-fatal myocardial infarction: rate/1000 patient-years (in vivo): 20.6 per 1000 patient years
Non-fatal stroke: % (in vivo): (1.9) %
Non-fatal stroke: hazard ratio vs placebo (in vivo): 0.88
Non-fatal stroke: no. (in vivo): 65
Non-fatal stroke: rate/1000 patient-years (in vivo): 8.5 per 1000 patient years
Pancreatic cancer: % (in vivo): 0.3%
Pancreatic cancer: N (in vivo): 11
Participants with ≥2 hHF events: % (in vivo): 1.7%
Participants with ≥2 hHF events: n (in vivo): 60
Pemphigoid (bullous pemphigoid): % (in vivo): 0.2%
Pemphigoid (bullous pemphigoid): N (in vivo): 7
Reduction of risk of albuminuria progression compared to placebo (in vivo): about 14%
Reduction of risk of microvascular renal and/or eye complications compared to placebo (in vivo): about 14%
Renal death, sustained ESKD, or sustained decrease of 50% or more in eGFR from baseline: hazard ratio vs placebo (in vivo): 0.98
Risk of HHF regardless of baseline renal function, in words (in vivo): did not affect the risk of HHF
Risk of albuminuria progression vs placebo, in words (in vivo): significantly reduced
Risk of hospitalization for heart failure, in words (in vivo): no increase in the risk
Serious adverse events: % (in vivo): 37.0%
Serious adverse events: N (in vivo): 1293
Skin lesions: % (in vivo): 0.1%
Skin lesions: N (in vivo): 5
Stent thrombosis, hospitalisation for peripheral vascularisation, retinopathy-related endpoints vs placebo, in words (in vivo): no significant difference
Sustained decrease of 30% or more in eGFR with eGFR <60; and renal death, sustained ESRD or CV death vs placebo, in words (in vivo): no significant difference
Time to first event of investigator reported events or adjudicated hHF: HR vs placebo (in vivo): 0.92
Time to first event of investigator reported events or adjudicated hHF: events (in vivo): 305
eGFR changes over time and transition in CKD status vs placebo, in words (in vivo): no clinically meaningful differences
eGFR slope (MDRD): between-group difference vs placebo, estimate ± SE (in vivo): −0.175 ± 0.151 /year
eGFR-slope, in words (in vivo): unaffected
hHF or all-cause mortality: HR vs placebo (in vivo): 0.95
hHF or all-cause mortality: events (in vivo): 499
4-point MACE: % (in vivo, listed as linagliptin): 13.3%
Acute pancreatitis, adjudication confirmed: N (in vivo, listed as linagliptin): 9
Albuminuria progression: hazard ratio (95% CI) vs placebo (in vivo, listed as linagliptin): 0.86
Albuminuria progression: rate/100 patient-years (in vivo, listed as linagliptin): 21.4 per 100 patient-years
Hospitalization for heart failure or cardiovascular death: % (in vivo, listed as linagliptin): 11.6%
Skin lesions: % (in vivo, listed as linagliptin): 0.2%
Risk of major adverse cardiovascular events (3P-MACE) vs placebo, in words (median follow up 2.2 years): non-inferior to placebo
Risk of renal outcome events vs placebo, in words (median follow up 2.2 years): did not increase the risk
Risk of major adverse cardiovascular events (3P-MACE) vs placebo, in words (median follow up 2.2 years, listed as linagliptin): did not increase the risk
Any adverse events: N (n = 3494): 2697
eGFR slope (MDRD) from baseline to last value on treatment/year, estimate ± SE (n = 6740 both groups): −2.459 ± 0.106 /year
hHF events (first+recurrent): rate ratio vs placebo (negative binomial model): 0.94
Albuminuria progression: patients, %: (35.3) %
Albuminuria progression: patients, % (listed as linagliptin): 35.3%
Contributing to composite microvascular outcome: patients with albuminuria progression, % (of n = 3494): 21.3%
Albuminuria progression: number of patients (patients analysed 2162 (n = 4291 both groups)): 763
Rate of hypoglycemia compared to placebo, in words (patients taking sulfonylurea at baseline): numerically higher rate
Incidence of severe hypoglycaemia (patients using insulin at baseline): 4.4%
Incidence of severe hypoglycaemia (patients using sulfonylurea at baseline): 2.0%
Time to onset of intensification or initiation of insulin vs placebo, in words (patients without insulin use at baseline): later
Cumulative number of hHF events (first+recurrent) (recurrent events analysis): 326
Patients who achieved glycaemic control at the end of the study irrespective of antidiabetic medication: % (study end): 29.0%
Patients who achieved glycaemic control at the end of the study irrespective of antidiabetic medication: n (study end): 1012
Proportion achieving glycaemic control at study end without additional or increased antidiabetic medication vs placebo, in words (study end visit): significantly greater
Risk of hHF vs placebo, in words (subgroup baseline SBP <140 mmHg): statistically lower risk of hHF
Risk of hHF vs placebo, in words (subgroup enrolled from North America or Asia, listed as LINA): nominally significant reductions
Risk of hHF vs placebo, in words (subgroup enrolled from North America or Asia, listed as linagliptin): Statistically significant lower risk of hHF
Hospitalisation for heart failure vs placebo, in words (listed as LINA): nominally significant reduction
Hospitalisation for heart failure vs placebo, in words (listed as linagliptin): favouring linagliptin in patients without insulin; also recorded: Statistically significant lower risk of hHF
4P-MACE, CV death, all-cause mortality, and MI-related endpoints vs placebo, in words (tertiary endpoints): no significant differences
Fatal and non-fatal stroke and transient ischaemic attack vs placebo, in words (tertiary endpoints): no significant differences
hHF; CV death or hHF; all-cause mortality or hHF; heart failure AEs vs placebo, in words (tertiary endpoints): no significant differences
Severe hypoglycemic event (requiring assistance): % (treated population): 3.0%
Severe hypoglycemic event (requiring assistance): N (treated population): 106
UACR vs placebo, in words (up to Week 132): statistically significant and clinically meaningful reduction
UACR: difference at week 36 (gMean ratio of relative change for linagliptin versus placebo) (week 36): 0.87
UACR: difference at week 84 (gMean ratio of relative change for linagliptin versus placebo) (week 84): 0.88
